Data as given in patent publication EP3441078A1, “PHARMACEUTICAL PRODUCT FOR TREATING LUPUS ERY[…] COMBINED IMMUNE DEFECT, AND PREPARATION AND APPLICATION THEREOF” (Beijing Lu De Kai Qi Co., Ltd., priority 2016, dated 2017).
Like-named read-outs stand apart in the source and are kept apart here. Marks after values point to notes of the source that are not given here.

Key:
[1] = tested on: sperm abnormality in mice; conditions: male mice, 40mg/kg•bw, positive control
Method: 1. […] The walnut extract, wormwood extract, American ginseng extract and shí hú extract were respectively taken, treated in a 70°C water bath for 1 hour, soaked for 12 hours, and concentrated for testing.
(§1) The healthy Kunming mice provided by the Experimental Animal Center of the National Institute for the Control of Pharmaceutical and Biological Products were selected.
50 sexually mature male mice weighing 30-35 g were randomly divided into 5 groups. […] The doses of the anti-lupus erythematosus pharmaceutical product for combined immunization according to the present invention were 2.00, 4.00, and 6.00 g/kg•bw, respectively, and the desired concentration were adjusted with distilled water. The mice were administered via oral gavage once a day for 5 days, and the animals were sacrificed 30 days after the last gavage. The epididymis was acquired and sectioned and stained with eosin. Five animals were counted in each group and 1000 intact sperm were counted per animal. The incidence of sperm abnormality (in percentage) was calculated and statistically processed.

[2] = tested on: polychromatic erythrocytes in bone marrow of mice; conditions: 50mg/kg•bw, positive control; for Number of Micronuclei(in Ge): 5000 cells inspected; for Permillage of Micronuclei: P<0.01 vs negative control
Method: as §1
The assay was carried out via oral gavage and the administration was performed twice at intervals of 24 hrs. 50 mice weighing 25-30 g were randomly divided into 5 groups according to body weight, 10 in each group, half male and half female. […] The doses of the anti-lupus erythematosus pharmaceutical product for combined immunization according to the present invention were 2.00, 4.00, and 6.00 g/kg•bw, respectively, which were adjusted to the desired concentration with distilled water. The animals were sacrificed by cervical dislocation six hours after the last administration of the anti-lupus erythematosus pharmaceutical product for combined immunization according to the present invention. The bone marrow of sternum was acquired and diluted with calf serum, smeared, fixed in methanol, and stained with Giemsa. Under the light microscope, 1000 polychromatic erythrocytes (PRC) were measured per animal, and the incidence of micronucleus was determined by the permillage of micronucleus-containing PRC and statistically processed. […] Kunming healthy mice provided by Laboratory Animal Center of National Institutes for Food and Pharmaceutical product Control were selected.
The test was carried out by two-time intragastric administration at an interval of 24 hours.50 mice weighing 25-30 g were randomly divided into 5 groups according to their body weight. They were randomly divided into 5 groups according to their body weight, with 10 mice in each group, half male and half female. […] The doses of the anti-lupus erythematosus pharmaceutical product for combined immunization of the present invention were 2.00, 4.00 and 6.00 g/kg•bw respectively, and were mixed with distilled water to the desired concentration. The animals were sacrificed by cervical dislocation 6 hours after the last administration of the anti-lupus erythematosus pharmaceutical product for combined immunization of the present invention. The sternum bone marrow was diluted with calf serum, fixed with methanol, and stained with Giemsa. Under the light microscope, 1000 polychromatic erythrocytes (PRC) were counted per animal, and the incidence of micronuclei was measured by the permillage of micronucleus-containing PRC and statistically processed.

O=P1(N(CCCl)CCCl)NCCCO1 (stereo not drawn) [cp, cyclophosphamide]
Number of Abnormal Sperms(in Ge) ([1]; 5000 sperms inspected): 480 | Percentage of Abnormal Sperms ([1]; P<0.01 vs negative control): 9.6* % | Number of Micronuclei(in Ge) ([2]; Female mice): 150 | Permillage of Micronuclei ([2]; Female mice): 30.0* ‰ | Number of Micronuclei(in Ge) ([2]; Male mice): 150 | Permillage of Micronuclei ([2]; Male mice): 30.0* ‰
